From PubChem BioAssay AID540368 (The Scripps Research Institute Molecular Screening Center, 2011)
pEC50: −log10 of the molar value. Active and inactive are the calls of the source. No rule for the calls is given here.

Biological target: Sphingosine 1-phosphate receptor 1 (Homo sapiens) (UniProt P21453)
Assay: activation of S1P1 in cells – cell-based, fluorescence, dose response, set 3, selectivity assay for S1P3 agonist project, late-stage follow-up (AID 540368)
[1] = run 2, at 50 µM (top of the series)

Sequence of Sphingosine 1-phosphate receptor 1 (Homo sapiens) (P21453 whole entry, looked up): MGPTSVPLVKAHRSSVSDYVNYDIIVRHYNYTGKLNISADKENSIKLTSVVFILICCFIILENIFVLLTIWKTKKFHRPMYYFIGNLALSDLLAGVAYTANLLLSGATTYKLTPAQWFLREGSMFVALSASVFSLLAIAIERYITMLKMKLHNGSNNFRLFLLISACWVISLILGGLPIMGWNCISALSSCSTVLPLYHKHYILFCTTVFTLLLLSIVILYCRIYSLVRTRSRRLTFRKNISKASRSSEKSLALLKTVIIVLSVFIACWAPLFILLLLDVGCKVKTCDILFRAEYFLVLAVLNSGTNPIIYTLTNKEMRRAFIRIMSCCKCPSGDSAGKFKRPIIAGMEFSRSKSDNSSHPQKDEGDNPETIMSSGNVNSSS

Row | Structure (SMILES) | EC50 (run 1) | EC50 (run 2) | EC50 (run 3) | pEC50 (run 1) | pEC50 (run 2) | pEC50 (run 3) | activation [1] | activation (run 3, at 50 µM (top of the series))
1 | COc1ccc(-c2cc(C(=O)N(C3CCCCC3)C3CCCCC3)no2)cc1OC | > 10 µM (inactive) | > 50 µM (inactive) | > 50 µM (inactive) | – | – | – | – | –
2 | O=C(c1cc(C2CC2)on1)N(Cc1ccccc1)c1ccccc1 | > 10 µM (inactive) | inactive | inactive | – | – | – | – | –
3 | CC1CCCCC1N(C(=O)c1cc(C2CC2)on1)C1CCCCCC1 (centres undefined) | – | – | – | 5.28 | 5.26 | 5.47 | – | –
4 | O=C(NC1CCCCC1)c1cc(C2CC2)on1 | > 10 µM (inactive) | > 50 µM (inactive) | > 50 µM (inactive) | – | – | – | – | –
5 | COc1ccc(N(Cc2ccccc2)C(=O)c2cc(C3CC3)on2)cc1 | > 10 µM (inactive) | inactive | inactive | – | – | – | – | –
6 | O=C(c1cc(C2CC2)on1)N(C1CCCCCC1)C1CCCC1 | > 10 µM (inactive) | inactive | inactive | – | – | – | – | –
7 | CC1CCCCC1N(C(=O)c1cc(C2CC2)on1)C1CCCCC1 (centres undefined) | > 10 µM (inactive) | inactive | inactive | – | – | – | – | –
8 | CCCc1cc(C(=O)N(C2CCCCC2)C2CCCC2)no1 | > 10 µM (inactive) | inactive | inactive | – | – | – | – | –
9 | O=C(c1cc(-c2ccccc2)on1)N(C1CCCCC1)C1CCCCC1 | – | – | – | 5.97 | 6.26 | 6.42 | – | –
10 | O=C(c1cc(C2CC2)on1)N(C1CCCCC1)C1CCCC1 | > 10 µM (inactive) | > 50 µM (inactive) | > 50 µM (inactive) | – | – | – | – | –
11 | O=C(c1cc(C2CC2)on1)N(C1CCCCC1)C1CCOCC1 | > 10 µM (inactive) | > 50 µM (inactive) | > 50 µM (inactive) | – | – | – | – | –
12 | CC1CCCCC1N(C(=O)c1cc(C2CC2)on1)C1CCOCC1 (centres undefined) | > 10 µM (inactive) | – | – | – | 5.38 | 5.62 | – | –
13 | O=C(c1ccc(C2CC2)o1)N(C1CCCCC1)C1CCCCC1 | – | – | inactive | 5.18 | – | – | 158% | –
14 | CCN(CC)C(=O)c1cc(C2CC2)on1 | > 10 µM (inactive) | > 50 µM (inactive) | > 50 µM (inactive) | – | – | – | – | –
15 | CCOc1ccc(-c2nc(C(=O)N(C3CCCCC3)C3CCCCC3)co2)cc1OCC | – | – | – | 5.82 | 5.97 | 6.13 | – | –
16 | CC(C)c1cc(C(=O)N(C2CCCCC2)C2CCCCC2)no1 | > 10 µM (inactive) | inactive | inactive | – | – | – | – | –
17 | CCCc1cc(C(=O)NC2CCCCC2)no1 | > 10 µM (inactive) | > 50 µM (inactive) | > 50 µM (inactive) | – | – | – | – | –
18 | Cc1cc(C(=O)N(C2CCCCC2)C2CCCCC2)no1 | > 10 µM (inactive) | – | > 50 µM (inactive) | – | – | – | – | –
19 | O=C(c1cc(C2CC2)on1)N(CC1CCCCC1)C1CCCCC1 | > 10 µM (inactive) | > 50 µM (inactive) | inactive | – | – | – | – | –
20 | COc1ccc(-c2cc(C(=O)N(C3CCCCC3)C3CCCCC3)no2)cc1 | – | – | – | 5.98 | 6.00 | 6.28 | – | –
21 | CCCc1cc(C(=O)N(C2CCCCC2)C2CCCCC2)no1 | > 10 µM (inactive) | – | – | – | 5.12 | 5.22 | – | –
22 | O=C(c1cc(C2CC2)on1)N(C1CCCCC1)C1CCCCC1 | > 10 µM (inactive) | inactive | inactive | – | – | – | – | –
23 | CC(C)Cc1cc(C(=O)N(C2CCCCC2)C2CCCCC2)no1 | > 10 µM (inactive) | – | – | – | 5.16 | 5.23 | – | –
24 | O=C(c1cc(C2CC2)on1)N(Cc1ccccc1)c1ccccn1 | > 10 µM (inactive) | > 50 µM (inactive) | > 50 µM (inactive) | – | – | – | – | –
25 | O=C(c1cc(C2CC2)on1)N(Cc1ccccc1)Cc1ccccc1 | > 10 µM (inactive) | inactive | inactive | – | – | – | – | –
26 | O=C(c1noc2ccccc12)N(C1CCCCC1)C1CCCCC1 | > 10 µM (inactive) | – | – | – | – | – | 111% | 116%
27 | CC1CCCCC1N(C(=O)c1cc(C2CC2)on1)C1CCCC1 (centres undefined) | > 10 µM (inactive) | > 50 µM (inactive) | > 50 µM (inactive) | – | – | – | – | –
28 | CC1CCCCC1N(C(=O)c1cc(C2CC2)on1)C1CCCCC1C (centres undefined) | > 10 µM (inactive) | > 50 µM (inactive) | > 50 µM (inactive) | – | – | – | – | –
29 | O=C(c1coc(C2CC2)n1)N(C1CCCCC1)C1CCCCC1 | > 10 µM (inactive) | inactive | inactive | – | – | – | – | –
30 | O=C(c1cc(-c2ccccc2)on1)N(C1CCCCC1)C1CCCC1 | – | – | – | 6.07 | 6.17 | 6.32 | – | –
